Source: patent US20230227466A1, “SUBSTITUTED THIENOPYRIMIDINES THAT INTERACT WITH THE RAS SUPERFAMILY FOR THE TREATMENT OF CANCERS, INFLAMMATORY DISEASES, RASOPATHIES, AND FIBROTIC DISEASE” (SHY Therapeutics, LLC, priority 2020, published 2023)
Like-named read-outs stand apart in the source and are kept apart here.

Legend:
KRas G12C mutant = target: T1, KRas G12C mutant (Homo sapiens, UniProt P01116, G12C); assay: Ras GTP binding domain inhibition assay (labeled-GTP competition, cell-free)
T1 construct: made in house
Method in brief: (§1)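 His-tagged protein immobilized on Ni-coated wells overnight at 4 °C. Compounds (20 μM single point or serial dilution for IC50) incubated 3 h at RT, ± Sos (residues 556-1049, 10-30 μg/mL) during the final hour. Cy3- or Cy5-GTP (100 nM) then added for 45 min; bound label read by fluorescence after washing.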

KRas G12D mutant = target: T2, KRas G12D mutant (Homo sapiens, UniProt P01116, G12D); assay: as above
T2 construct: made in house
Method in brief: as §1

KRas Q61H mutant = target: T3, KRas Q61H mutant (Homo sapiens, UniProt P01116, Q61H); assay: as above
T3 construct: made in house
Method in brief: as §1

[1] = tested on: MIA-PaCa-2 pancreatic cancer cell line (KRAS G12C); assay: Cell proliferation assay (CellTiter 96 Aqueous One); type: cell-based; details: Homo sapiens; for IC50: MIA PaCa-2, MIA PaCa-2; for inhibition at 10 µM: MIA PaCa-2, read-out: % inh cell proliferation (10 μM) in MIA PaCa-2
Method in brief: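 Read-out is MTS-based viability (CellTiter 96 Aqueous One) after 2–4 days of compound exposure at 37 °C in 10% FBS with 0.3% DMSO.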

Kinetic solubility assay = type: physicochemical; details: phosphate-buffered saline pH 7.4 with 2% DMSO, aqueous buffer, kinetic from dmso stock; pH 7.4 PBS + 2% DMSO, 25° C., two hours; effective range approximately 2-400 μM
Experimental: Equipment: Water purification system Millipore Milli-Q Gradient A10 (Millipore, France); Thermomixer R Block, 1.5 ml (Eppendorf, Germany; Cat #5355); Matrix Multichannel Electronic Pipette 2-125 μL, 5-250 μL, 15-1250 μL (Thermo Scientific, USA; Cat ##2011, 2012, 2004); SpectraMax Plus Microplate Reader (Molecular Devices, USA; Product #02196); Multi-Well Plate Vacuum Manifold (Pall Corporation, USA; Product #5014); and Vacuum pump (Millipore, USA; Model #XX5500000)
Analytical System: The measurements were performed using SpectraMax Plus reader in UV-Vis mode. Acquisition and analysis of the data were performed using SoftMax Pro v.5.4 (Molecular Devices) and Excel 2010 data analysis software.
Methods: Briefly, using a 20 mM stock solution of the compound in 100% DMSO dilutions were prepared to a theoretical concentration of 400 μM in duplicates in phosphate-buffered saline pH 7.4 (138 mM NaCl, 2.7 mM KCl, 10 mM K-phosphate) with 2% final DMSO. The experimental compound dilutions in PBS were further allowed to equilibrate at 25° C. on a thermostatic shaker for two hours and then filtered through HTS filter plates using a vacuum manifold. The filtrates of test compounds were diluted 2-fold with acetonitrile with 2% DMSO before measuring.
In parallel, compound dilutions in acetonitrile/PBS (1:1) were prepared to theoretical concentrations of 0 μM (blank), 10 μM, 25 μM, 50 μM, 100 μM, and 200 μM with 2% final DMSO to generate calibration curves. Ondansetron was used as reference compound to control proper assay performance. 200 μL of each sample was transferred to 96-well plate and measured in 200-550 nm range with 5 nm step.
The concentrations of compounds in PBS filtrate are calculated using a dedicated Microsoft Excel calculation script. Proper absorbance wavelengths for calculations are selected for each compound manually based on absorbance maximums (absolute absorbance unit values for the minimum and maximum concentration points within 0-3 OD range). Each of the final datasets is additionally visually evaluated by the operator and goodness of fit (R2) is calculated for each calibration curve. […] This method is not suitable for liquid (at 25° C.) substances (were not present among the tested compounds). Table 3A provides the kinetic solubility for some of the exemplified compounds.

[2] = with SOS, read-out: KRas G12C mutant + SOS: % inh.
[3] = without SOS, read-out: KRas G12C mutant: % inh.
[4] = with SOS, read-out: KRas G12D mutant + SOS: % inh.
[5] = without SOS, read-out: KRas G12D mutant: % inh.
[6] = with SOS, read-out: KRas Q61H mutant + SOS: % inh.
[7] = without SOS, read-out: KRas Q61H mutant: % inh.

Structure (SMILES)	inhibition at 20 µM (KRas G12C mutant; [2]) [%]	inhibition at 20 µM (KRas G12C mutant; [3]) [%]	inhibition at 20 µM (KRas G12D mutant; [4]) [%]	inhibition at 20 µM (KRas G12D mutant; [5]) [%]	inhibition at 20 µM (KRas Q61H mutant; [6]) [%]	inhibition at 20 µM (KRas Q61H mutant; [7]) [%]	IC50 [1] [µM]	inhibition at 10 µM [1] [%]	solubility kinetic at 2 h (Kinetic solubility assay) [µM]	IC50 (KRas Q61H mutant; with SOS) [µM]
CO[C@@H]1CC[C@@H](Nc2nc(-c3nccn3C)nc3sc(-c4ccn(C(C)C)n4)c(C)c23)C1 (racemic) [Compound 33, rac-6-(1-Isopropyl-1H-pyrazol-3-yl)-N-((1R,3R)-3-methoxycyclopentyl)-5-methyl-2-(1-methyl-1H-imidazol-2-yl)thieno[2,3-d]pyrimidin-4-amine]	76 to 100	76 to 100	76 to 100	51 to 75	76 to 100	76 to 100	1 to 4.99	76 to 100	49	
COC1CCN(c2nc(-c3nccn3C)nc3sc(-c4ccn(C(C)C)n4)c(C)c23)C1 (racemic) [Compound 34, rac-6-(1-Isopropyl-1H-pyrazol-3-yl)-4-(3-methoxypyrrolidin-1-yl)-5-methyl-2-(1-methyl-1H-imidazol-2-yl)thieno[2,3-d]pyrimidine]	76 to 100	76 to 100	76 to 100	76 to 100	76 to 100	76 to 100	1 to 4.99	76 to 100	> 400	
COc1ccnc(Nc2nc(-c3nccn3C)nc3sc(-c4ccn(C(C)C)n4)c(C)c23)n1 [Compound 68, 6-(1-Isopropyl-1H-pyrazol-3-yl)-N-(4-methoxypyrimidin-2-yl)-5-methyl-2-(1-methyl-1H-imidazol-2-yl)thieno[2,3-d]pyrimidin-4-amine]	51 to 75	76 to 100	76 to 100	76 to 100	51 to 75	76 to 100	1 to 4.99	76 to 100		
Cc1c(-c2ccn(C(C)C)n2)sc2nc(-c3ccccn3)nc(N3CCC(COC(C)C)C3)c12 (stereo not drawn) [Compound 72, 4-(3-(Isopropoxymethyl)pyrrolidin-1-yl)-6-(1-isopropyl-1H-pyrazol-3-yl)-5-methyl-2-(pyridin-2-yl)thieno[2,3-d]pyrimidine]	1 to 25	0	0	51 to 75	0	0	5 to 10	51 to 75		
COCCn1cnc(-c2nc(O)c3scc(-c4ccccn4)c3n2)c1 [Compound 78, 2-(1-(2-Methoxyethyl)-1H-imidazol-4-yl)-7-(pyridin-2-yl)thieno[3,2-d]pyrimidin-4-ol]	51 to 75	51 to 75	51 to 75	76 to 100	51 to 75	76 to 100	5 to 10	51 to 75		
COCCCn1ccnc1-c1nc(O)c2scc(-c3ccccn3)c2n1 [Compound 79, 2-(1-(3-Methoxypropyl)-1H-imidazol-2-yl)-7-(pyridin-2-yl)thieno[3,2-d]pyrimidin-4-ol]	51 to 75	51 to 75	51 to 75	51 to 75	51 to 75	51 to 75	1 to 4.99	76 to 100		
CCOCCn1ccnc1-c1nc(O)c2scc(-c3ccccn3)c2n1 [Compound 80, 2-(1-(2-Ethoxyethyl)-1H-imidazol-2-yl)-7-(pyridin-2-yl)thieno[3,2-d]pyrimidin-4-ol]	51 to 75	51 to 75	76 to 100	76 to 100	51 to 75	76 to 100	1 to 4.99	76 to 100		
Oc1nc(-c2nccn2CCOCC(F)(F)F)nc2c(-c3ccccn3)csc12 [Compound 81, 7-(Pyridin-2-yl)-2-(1-(2-(2,2,2-trifluoroethoxy)ethyl)-1H-imidazol-2-yl)thieno[3,2-d]pyrimidin-4-ol]	51 to 75	51 to 75	76 to 100	51 to 75	51 to 75	51 to 75	1 to 4.99	76 to 100		
CC(C)OCCn1ccnc1-c1nc(O)c2scc(-c3ccccn3)c2n1 [Compound 82, 2-(1-(2-Isopropoxyethyl)-1H-imidazol-2-yl)-7-(pyridin-2-yl)thieno[3,2-d]pyrimidin-4-ol]	51 to 75	51 to 75	51 to 75	51 to 75	51 to 75	51 to 75	1 to 4.99	76 to 100		
Oc1nc(-c2nccn2CCOCc2ccccc2)nc2c(-c3ccccn3)csc12 [Compound 83, 2-(1-(2-(Benzyloxy)ethyl)-1H-imidazol-2-yl)-7-(pyridin-2-yl)thieno[3,2-d]pyrimidin-4-ol]	51 to 75	1 to 25	51 to 75	51 to 75	51 to 75	26 to 50	5 to 10	76 to 100		
COc1cccn2c(-c3nc(O)c4scc(-c5ccccn5)c4n3)ncc12 [Compound 84, 2-(8-Methoxyimidazo[1,5-a]pyridin-3-yl)-7-(pyridin-2-yl)thieno[3,2-d]pyrimidin-4-ol]	1 to 25	26 to 50	26 to 50	26 to 50	26 to 50	26 to 50	5 to 10	51 to 75		
CO[C@H]1C[C@@H](Nc2nc(-c3nccn3C)nc3sc(-c4ccn(C(C)C)n4)c(C)c23)C1 [Compound 96, 6-(1-isopropyl-1H-pyrazol-3-yl)-N-((1s,3s)-3-methoxycyclobutyl)-5-methyl-2-(1-methyl-1H-imidazol-2-yl)thieno[2,3-d]pyrimidin-4-amine]	0	0	1 to 25	0	0	0	> 10	1 to 25		> 10
